Reference: PubChem BioAssay (NCI)
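Five concentrations, 48 hours, 96-well plates. The concentration for 50% growth inhibition is given as GI50. TGI: total growth inhibition.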

Legend:
Experiment in all cases: NCI tumour cell line growth inhibition, 48 h
HCT-116 colon = system: HCT-116 colon
HT29 colon = system: HT29 colon
SK-MEL-28 melanoma = system: SK-MEL-28 melanoma
K-562 leukemia = system: K-562 leukemia
HCC-2998 colon = system: HCC-2998 colon
U251 CNS = system: U251 CNS
ACHN renal = system: ACHN renal
SNB-75 CNS = system: SNB-75 CNS
NCI-H226 lung = system: NCI-H226 lung
LOX IMVI melanoma = system: LOX IMVI melanoma

Cc1cc(=O)oc2c1cc(OCC(=O)OCCN1CCCCC1)c1occ(C)c12
TGI (HCT-116 colon): > 100 µM | TGI (HT29 colon): > 100 µM | TGI (SK-MEL-28 melanoma): > 100 µM | TGI (K-562 leukemia): > 100 µM | TGI (HCC-2998 colon): > 100 µM | TGI (U251 CNS): > 100 µM | TGI (ACHN renal): > 100 µM | TGI (SNB-75 CNS): > 100 µM | TGI (NCI-H226 lung): > 100 µM | TGI (LOX IMVI melanoma): > 100 µM

CCOC(=O)NC
TGI (HCT-116 colon): > 100 µM | TGI (HT29 colon): > 100 µM | TGI (SK-MEL-28 melanoma): > 100 µM | TGI (K-562 leukemia): > 100 µM | TGI (HCC-2998 colon): > 100 µM | TGI (U251 CNS): > 100 µM | TGI (ACHN renal): > 100 µM | TGI (SNB-75 CNS): > 100 µM | TGI (LOX IMVI melanoma): > 100 µM

Cn1c(Sc2ccc(-c3cccnc3)n2C)ccc1-c1cccnc1
TGI (HCT-116 colon): 25.7 µM | TGI (HT29 colon): 55.1 µM | TGI (SK-MEL-28 melanoma): 26.9 µM | TGI (K-562 leukemia): 13.8 µM | TGI (HCC-2998 colon): 34.7 µM | TGI (U251 CNS): 26.9 µM | TGI (ACHN renal): 44.9 µM | TGI (SNB-75 CNS): 46.9 µM | TGI (NCI-H226 lung): 51.1 µM | TGI (LOX IMVI melanoma): 15.8 µM

O=C1c2ccccc2C(=O)c2c1ccc(C(=O)O)c2-c1ccc2ccccc2c1
TGI (HCT-116 colon): 47.7 µM | TGI (HT29 colon): > 100 µM | TGI (SK-MEL-28 melanoma): > 100 µM | TGI (K-562 leukemia): 85.7 µM | TGI (HCC-2998 colon): > 100 µM | TGI (U251 CNS): 55.4 µM | TGI (ACHN renal): > 100 µM | TGI (NCI-H226 lung): 79.6 µM | TGI (LOX IMVI melanoma): 41.6 µM

CCCCCCCCCCCCCCCCOCC(COP(=O)([O-])OCC[n+]1ccc(N(C)C)cc1)OCC (centres undefined)
TGI (HCT-116 colon): 24.5 µM | TGI (HT29 colon): 28 µM | TGI (SK-MEL-28 melanoma): 32.4 µM | TGI (K-562 leukemia): 36.6 µM | TGI (HCC-2998 colon): 27.6 µM | TGI (U251 CNS): 25.6 µM | TGI (ACHN renal): 30.9 µM | TGI (SNB-75 CNS): 18.8 µM | TGI (NCI-H226 lung): 33.7 µM | TGI (LOX IMVI melanoma): 25.5 µM

COc1cc2c(cc1Oc1ccc(OC)c3c1CC1c4c(cc(OC)c(OC)c4-3)CCN1C)CC1c3c(cc(OC)c(OC)c3-2)CCN1C (centres undefined)
TGI (HCT-116 colon): 4.49 µM | TGI (HT29 colon): 2.94 µM | TGI (SK-MEL-28 melanoma): 3.44 µM | TGI (K-562 leukemia): 3.92 µM | TGI (HCC-2998 colon): 5.89 µM | TGI (U251 CNS): 4.19 µM | TGI (SNB-75 CNS): 10.1 µM | TGI (NCI-H226 lung): 5.01 µM | TGI (LOX IMVI melanoma): 2.48 µM

NC(=O)Nc1cc(O)ccc1N=Nc1ccc(S(=O)(=O)Nc2ccccn2)cc1
TGI (HCT-116 colon): > 100 µM | TGI (HT29 colon): > 100 µM | TGI (SK-MEL-28 melanoma): > 100 µM | TGI (K-562 leukemia): > 100 µM | TGI (HCC-2998 colon): > 100 µM | TGI (U251 CNS): > 100 µM | TGI (ACHN renal): > 100 µM | TGI (SNB-75 CNS): > 100 µM | TGI (LOX IMVI melanoma): > 100 µM

COc1cc(C)c2c(=O)c3c(oc2c1)C(=O)c1c(O)c(OC)cc(O)c1C3=O
TGI (HCT-116 colon): 3.42 µM | TGI (HT29 colon): > 50 µM | TGI (SK-MEL-28 melanoma): 7.44 µM | TGI (K-562 leukemia): 4.39 µM | TGI (HCC-2998 colon): 25 µM | TGI (U251 CNS): 2.53 µM | TGI (SNB-75 CNS): 3.84 µM | TGI (NCI-H226 lung): 0.524 µM | TGI (LOX IMVI melanoma): 1.24 µM

COc1ccc(CC2c3cc(OC)c(OC)c(OC)c3CC[N+]2(C)C)cc1Oc1ccc(CC2c3cc4c(c(OC)c3CCN2C)OCO4)cc1 (centres undefined)
TGI (HCT-116 colon): > 100 µM | TGI (HT29 colon): > 100 µM | TGI (SK-MEL-28 melanoma): > 100 µM | TGI (K-562 leukemia): > 100 µM | TGI (HCC-2998 colon): > 100 µM | TGI (U251 CNS): > 100 µM | TGI (ACHN renal): > 100 µM | TGI (SNB-75 CNS): > 100 µM | TGI (NCI-H226 lung): > 100 µM | TGI (LOX IMVI melanoma): > 100 µM

c1ccc2sc(SCN(C3CCCCC3)C3CCCCC3)nc2c1
TGI (HT29 colon): > 100 µM | TGI (SK-MEL-28 melanoma): > 100 µM | TGI (K-562 leukemia): > 100 µM | TGI (HCC-2998 colon): > 100 µM | TGI (U251 CNS): > 100 µM | TGI (ACHN renal): > 100 µM | TGI (NCI-H226 lung): > 100 µM | TGI (LOX IMVI melanoma): > 100 µM

COc1c(Cl)cc(S(=O)O)cc1Cl
TGI (HCT-116 colon): > 100 µM | TGI (HT29 colon): > 100 µM | TGI (SK-MEL-28 melanoma): > 100 µM | TGI (K-562 leukemia): > 100 µM | TGI (HCC-2998 colon): > 100 µM | TGI (U251 CNS): > 100 µM | TGI (ACHN renal): > 100 µM | TGI (SNB-75 CNS): > 100 µM | TGI (LOX IMVI melanoma): > 100 µM

COc1cc(O)c2c(c1)C(=O)c1cc(C)cc(O)c1C2=O
TGI (HCT-116 colon): > 100 µM | TGI (HT29 colon): > 100 µM | TGI (SK-MEL-28 melanoma): > 100 µM | TGI (K-562 leukemia): > 100 µM | TGI (HCC-2998 colon): > 100 µM | TGI (U251 CNS): > 100 µM | TGI (ACHN renal): > 100 µM | TGI (SNB-75 CNS): > 100 µM | TGI (NCI-H226 lung): > 100 µM | TGI (LOX IMVI melanoma): > 100 µM

O=C(O)C1=NNC(C(=O)O)=NN1
TGI (HCT-116 colon): > 100 µM | TGI (HT29 colon): > 100 µM | TGI (SK-MEL-28 melanoma): > 100 µM | TGI (K-562 leukemia): > 100 µM | TGI (U251 CNS): > 100 µM | TGI (ACHN renal): > 100 µM | TGI (SNB-75 CNS): > 100 µM | TGI (NCI-H226 lung): > 100 µM | TGI (LOX IMVI melanoma): > 100 µM

Fc1ccc(-c2nnc3sc(COc4ccccc4Cl)nn23)cc1Cl
GI50 (HCT-116 colon): 29.1 µM | TGI (HCT-116 colon): > 100 µM | GI50 (HT29 colon): 48.1 µM | TGI (HT29 colon): > 100 µM | GI50 (K-562 leukemia): 24.6 µM | TGI (K-562 leukemia): 67.6 µM | GI50 (HCC-2998 colon): > 100 µM | TGI (HCC-2998 colon): > 100 µM | GI50 (U251 CNS): 24.9 µM | TGI (U251 CNS): 67.2 µM | GI50 (ACHN renal): 32.7 µM | TGI (ACHN renal): > 100 µM | GI50 (SNB-75 CNS): 47.3 µM | TGI (SNB-75 CNS): > 100 µM | GI50 (NCI-H226 lung): 22.8 µM | TGI (NCI-H226 lung): 57.1 µM | GI50 (LOX IMVI melanoma): 16.5 µM | TGI (LOX IMVI melanoma): 31.6 µM

CC(CO)(CO)Nc1ncnc2ccccc12
TGI (HCT-116 colon): > 100 µM | TGI (HT29 colon): > 100 µM | TGI (SK-MEL-28 melanoma): > 100 µM | TGI (K-562 leukemia): > 100 µM | TGI (HCC-2998 colon): > 100 µM | TGI (U251 CNS): > 100 µM | TGI (ACHN renal): > 100 µM | TGI (SNB-75 CNS): > 100 µM | TGI (NCI-H226 lung): > 100 µM | TGI (LOX IMVI melanoma): > 100 µM

Nc1nnc(N)n1NC(=O)C(=O)Nc1ccc([N+](=O)[O-])cc1
TGI (HCT-116 colon): > 100 µM | TGI (HT29 colon): > 100 µM | TGI (SK-MEL-28 melanoma): > 100 µM | TGI (K-562 leukemia): > 100 µM | TGI (HCC-2998 colon): > 100 µM | TGI (U251 CNS): > 100 µM | TGI (ACHN renal): > 100 µM | TGI (SNB-75 CNS): > 100 µM | TGI (NCI-H226 lung): > 100 µM | TGI (LOX IMVI melanoma): > 100 µM

CC1(O)CC23CC1CCC2(C)C12CCCC(C)(C(=O)O1)C2CC3O (centres undefined)
TGI (HCT-116 colon): > 100 µM | TGI (HT29 colon): > 100 µM | TGI (SK-MEL-28 melanoma): > 100 µM | TGI (K-562 leukemia): > 100 µM | TGI (HCC-2998 colon): > 100 µM | TGI (U251 CNS): > 100 µM | TGI (ACHN renal): > 100 µM | TGI (SNB-75 CNS): > 100 µM | TGI (NCI-H226 lung): > 100 µM | TGI (LOX IMVI melanoma): > 100 µM
